Columns and labels:
PDE7A1 = target: T1, PDE7A1 (Homo sapiens, UniProt Q13946); experiment: PDE7 activity and inhibition assay (HPLC detection of cAMP and AMP); type: biochemical; conditions: inhibitor final concentration 0.1 μg/μl; substrate cAMP; 90 minutes
T1 construct: purchased CALBIOCHEM 524751
Method: The activity of PDE7A1 was determined in an enzymatic assay as described below, using: • Enzyme: 0.005 U/μl PDE7A1 (Cat.#: 524751, CALBIOCHEM) • Substrate: 0.0008 μg/μl cAMP (Lot.#: BCBF5219V, SIGMA-ALDRICH) • Buffer: 10 mM Tris-HCl, pH 7.5 • Inhibitor as mentioned above: 0.3 μg/μl as a result final concentration 0.1 μg/μl
An example of the enzymatic assay for determining the activity of PDE7A1 is illustrated in FIG. 2. Briefly, substrate (10 μl), PDE7A1 (10 μl), and buffer (10 μl; as a control) were placed in an eppendorf tube in a total volume of 30 μl and immediately (at 0 minute) injected into HPLC (L-7420, HITACHI) and the contents of cAMP and AMP in the reaction mixture were detected at 254 nm under the following conditions:
Solvent: 0.2M NaH2PO4, 25 mM TBA-HS, 15% ACN, pH6
The peak areas of the cAMP and AMP were measured.
90 minutes later, the control mixture was injected again into the HPLC apparatus and the peak areas of cAMP and AMP were measured as described above and compared with that of the initial injection.
Reaction mixtures containing each of the four inhibitors (10 μl) in the same total volume were injected into the HPLC apparatus following the same procedure as described above and the peak areas of cAMP and AMP were measured and compared with that of the control sample. The percentages of inhibition were calculated.

PDE1 = PDE1 activity and inhibition assay (bis-p-nitrophenyl phosphate, OD 405 nm); type: biochemical; conditions: inhibitor final concentration 0.125 μg/μl; substrate bis-p-nitrophenyl phosphate
Method: The activity of PDE1 was determined in an enzymatic assay as described below, using: • Enzyme: 10 μg/μl PDE1 (Lot.#: SLBD8711V, SIGMA-ALDRICH) • Substrate: 0.001 M Bis-p-nitrophenyl phosphate (Lot.#: 021M5003V, SIGMA-5 ALDRICH) • Buffer: 0.1M Tris-HCl, pH 8.9 • Inhibitor (trans-aconitic acid (TAA), Calycosin, Kaempferol 3-O-rutinoside, and Wogonin): 1 μg/μl (final concentration 0.125 μg/μl)
An example of the enzymatic assay is illustrated in FIG. 1. Briefly, substrate (50 μl) and buffer (200 μl) were placed in a plastic disposable cuvette (Cat.#: BL6224, Basic Life). PDE1 (100 μl) and each of the four inhibitors (50 μl) or the buffer (50 μl) as a control were then added into the cuvette. The total volume of the reaction mixture is 400 μl. After incubating the enzymatic reaction mixture for a suitable period of time, the optical density was detected by a spectrophotometer at a wave length of 405 nm (U-3300, HITACHI). The optical densities of the reaction mixtures containing the inhibitors were compared with that of the control mixture and the percentages of inhibition were calculated.

T1 sequence (Q13946 whole entry): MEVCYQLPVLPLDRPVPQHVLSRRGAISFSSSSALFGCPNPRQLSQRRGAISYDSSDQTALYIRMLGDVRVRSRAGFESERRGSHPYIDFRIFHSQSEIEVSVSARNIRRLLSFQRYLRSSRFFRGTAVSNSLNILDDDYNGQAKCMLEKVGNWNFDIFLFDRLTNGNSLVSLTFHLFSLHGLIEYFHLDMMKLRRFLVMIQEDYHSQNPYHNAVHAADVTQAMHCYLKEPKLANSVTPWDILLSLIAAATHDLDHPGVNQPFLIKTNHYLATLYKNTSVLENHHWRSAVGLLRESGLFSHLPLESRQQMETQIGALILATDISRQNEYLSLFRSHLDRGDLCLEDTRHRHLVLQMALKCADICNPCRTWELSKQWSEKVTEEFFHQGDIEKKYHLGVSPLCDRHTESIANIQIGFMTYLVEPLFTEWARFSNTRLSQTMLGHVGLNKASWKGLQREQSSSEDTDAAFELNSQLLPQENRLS

inhibitory activity against PDE7A1 (percentage of inhibition, FIG. 3) (PDE7A1): specifically inhibits PDE7A1
SMILES: O=C(O)/C=C(\CC(=O)O)C(=O)O [TAA, trans-aconitic acid]
inhibitory activity against PDE1 (percentage of inhibition, FIG. 3) (PDE1): not PDE1

From US9610268B2, “Trans-aconitic acid compounds and uses thereof for inhibiting phosphodiesterase 7” (Academia Sinica, priority 2013, dated 2017)
